Laboratory results from ChEMBL document CHEMBL1145582, “4,5-Disubstituted oxazolidinones: High affinity molecular effectors of RNA function” (Bioorg Med Chem Lett, 2008).
pKd: −log10 of the molar value. The source made the active and inactive calls. No cut-off for these calls is given here.

Columns and labels:
[1] = Binding affinity at RNAs 3'-Fl-18-Rh-AM1A T box antiterminator model RNA by FRET assay; set-up: species or system Bacillus subtilis
[2] = Binding affinity at 3'-Fl-18-Rh-C11U T box antiterminator model RNA by FRET assay; set-up: species or system Bacillus subtilis
[3] = target: T1, Guanyl-specific ribonuclease T1 (Aspergillus oryzae (strain ATCC 42149 / RIB 40)) (UniProt P00651); assay: Decrease in Aspergillus oryzae RNase T1 cleavage in AM1A T box antiterminator model RNA
T1 sequence (whole entry): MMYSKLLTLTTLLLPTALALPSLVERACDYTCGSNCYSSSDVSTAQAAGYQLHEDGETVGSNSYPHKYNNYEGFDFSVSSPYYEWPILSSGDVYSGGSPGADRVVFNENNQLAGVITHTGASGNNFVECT

[4] = target: T1, Guanyl-specific ribonuclease T1 (Aspergillus oryzae (strain ATCC 42149 / RIB 40)); assay: Enhancement of Aspergillus oryzae RNase T1 cleavage in position 15 of AM1A T box antiterminator model RNA
[5] = target: T1, Guanyl-specific ribonuclease T1 (Aspergillus oryzae (strain ATCC 42149 / RIB 40)); assay: Reduction of Aspergillus oryzae RNase T1 cleavage in position 7 of AM1A T box antiterminator model RNA; set-up: scale not given: the % may be the effect or the level left
Bacillus subtilis = assay: Reduction of Bacillus subtilis tRNA-glycine-dependent antitermination at 1.3 mM in presence on RNA polymerase; set-up: scale not given: the % may be the effect or the level left
[6] = Binding affinity at AM1A T box antiterminator model RNA in presence of cognate tRNA; set-up: species or system Bacillus subtilis
[7] = target: T1, Guanyl-specific ribonuclease T1 (Aspergillus oryzae (strain ATCC 42149 / RIB 40)); assay: Reduction of Aspergillus oryzae RNase T1 induced cleavage at position 8 of AM1A T box antiterminator model RNA; set-up: scale not given: the % may be the effect or the level left
[8] = target: T1, Guanyl-specific ribonuclease T1 (Aspergillus oryzae (strain ATCC 42149 / RIB 40)); assay: Reduction of Aspergillus oryzae RNase T1 cleavage in position 9 of AM1A T box antiterminator model RNA; set-up: scale not given: the % may be the effect or the level left

CCCCCCCC(=O)OC[C@H]1OC(=O)N[C@@H]1CN(C)c1ccccc1
pKd [1]: 5.18 | pKd [2]: 5.39

CC(=O)c1ccc(NC(=O)OC[C@H]2OC(=O)N[C@@H]2CN2CCN(c3ccccc3)CC2)cc1
pKd [1]: 6.05 | pKd [2]: > 6.00 | Activity [3]: Active

CN(CCc1ccccc1)C[C@H]1NC(=O)O[C@@H]1COC(=O)Cc1ccccc1
pKd [1]: 3.94

CN(C[C@H]1NC(=O)O[C@@H]1COC(=O)Cc1ccccc1)c1ccccc1
pKd [1]: 4.21 | pKd [2]: 3.91

O=C(Cc1ccccc1)OC[C@H]1OC(=O)N[C@@H]1CN1CCOCC1
pKd [1]: 4.38

O=C(Cc1ccccc1)OC[C@H]1OC(=O)N[C@@H]1Cc1ccccc1
pKd [1]: 5.05 | pKd [2]: 3.90

O=C(Cc1ccccc1)OC[C@H]1OC(=O)N[C@@H]1CN1CCN(c2ccccc2)CC1
pKd [1]: 4.89 | pKd [2]: 4.00 | Activity [4]: 70% | Activity [5]: 44% | Activity (Bacillus subtilis): 40% | pKd [6]: 4.19 | Activity [7]: 41% | Activity [8]: 57%
